In patent US8173685B2, “Pleuromutilin derivatives and their use as antimicrobials” (Nabriva Therapeutics AG, priority 2007, dated 2012):
In brackets after ≈: the same amount, converted by molar mass. Read-outs that look alike come from different tables or passages of the source.

Key:
Assay type in all cases: cell-based
[1] = test system: Escherichia coli ATCC25922 (strain B1); assay: MIC determination according to CLSI, Escherichia coli ATCC25922
Description: (§1) For example, the compounds of the present invention show antimicrobial, e.g. antibacterial, activity against gram positive bacteria, such as coagulase-positive and coagulase-negative Staphylococci, e.g. Staphylococcus aureus, Styphylococcus epidermis, Staphylococcus haemolyticus, Streptococci, e.g. Streptococcus pyogenes, Streptococcus pneumoniae, Streptococcus agalacticae, Enterococci, e.g. Enterococcus faecium and Moraxellaceae, e.g. Moraxella catarrhalis, Pasteurellaceae, e.g. Haemophilus influenzae, as well as against Mycoplasmactaceae, Chlamydiaceae, e.g. Chlamydia trachomatis, Chlamydia pneumoniae and obligatory anaerobes, e.g. Bacteroides fragilis, Clostridium difficile; in vitro in the Agar Dilution Test or Microdilution Test according to the Climical and Laboratory Standards Institute (CLSI, former National Committee for Clinical Laboratory Standards (NCCLS) 2006, Document M7-A7 Vol. 26, No. 2: “Methods for dilution Antimicrobial Susceptibility Tests for Bacteria that Grow Aerobically—Seventh Edition, Approved Standard”; and in the in vitro determination of the antibacterial activity against anaerobic bacteria according to National Committee for Clinical Laboratory Standards (NCCLS) VOL. 24, No. 2, M11-A5, Methods for Antimicrobal Susceptibility Testing of Anaerobic Bacteria; Approved Standard; Sixth Edition (2004) and in vivo in the septicaemic mouse model against Staphylococcus aureus.
(§2) The antibacterial activity expressed as minimal inhibitory concentration (MIC) was determined according to the approved standard reference recommendations of CLSI (former NCCLS).

[2] = test system: Staphylococcus aureus (MSSA) ATCC29213 (strain B7); assay: MIC determination according to CLSI, Staphylococcus aureus (MSSA) ATCC29213
Description: as §1, §2

[3] = test system: Enterococcus faecalis ATCC29212 (strain B4); assay: MIC determination according to CLSI, Enterococcus faecalis ATCC29212
Description: as §1, §2

[4] = test system: Streptococcus pneumoniae ATCC49619 (strain B11); assay: MIC determination according to CLSI, Streptococcus pneumoniae ATCC49619
Description: as §1, §2

[5] = test system: Moraxella catarrhalis ATCC43618 (strain B407); assay: MIC determination according to CLSI, Moraxella catarrhalis ATCC43618
Description: as §1, §2

[6] = test system: Staphylococcus aureus (MSSA) ATCC10390 (strain B6); assay: MIC determination according to CLSI, Staphylococcus aureus (MSSA) ATCC10390
Description: as §1, §2

[7] = test system: Staphylococcus aureus, Enterococcus faecalis, Streptococcus pneumoniae, Moraxella catarrhalis and Escherichia coli; assay: Antibacterial activity (MIC) against the panel of clinical relevant bacterial pathogens
Description: as §2

[8] = test system: Enterococcus faecalis ATCC51299 (strain B5); assay: MIC determination according to CLSI, Enterococcus faecalis ATCC51299
Description: as §1, §2

[9] = ATCC25922, strain B1, read-out: MIC
[10] = Staphylococcus aureus (MSSA), ATCC29213, strain B7, read-out: MIC
[11] = ATCC29212, strain B4, read-out: MIC
[12] = ATCC49619, strain B11, read-out: MIC
[13] = ATCC43618, strain B407, read-out: MIC
[14] = Staphylococcus aureus (MSSA), ATCC10390, strain B6, read-out: MIC
[15] = ATCC51299, strain B5, read-out: MIC

| MIC [1, 9] [µg/mL] | MIC [2, 10] [µg/mL] | MIC [3, 11] [µg/mL] | MIC [4, 12] [µg/mL] | MIC [5, 13] [µg/mL] | MIC [6, 14] [µg/mL] | factor by which MICs are lower than the MICs of examples 39-41 ([7]; against at least one of the strains shown in Table 1) | MIC [8, 15] [µg/mL] | Compound | activity against the clinical relevant bacterial pathogens (in words) ([7]; in vitro, S. aureus, E. faecalis, S. pneumoniae, M. catarrhalis, E. coli) | MIC ([1]; ATCC25922) [µg/mL] | MIC ([2]; Staphylococcus aureus) [µg/mL] | MIC ([3]; ATCC29212) [µg/mL] | MIC ([4]; ATCC49619) [µg/mL] | MIC ([5]; ATCC43618) [µg/mL] | MIC ([6]; Staphylococcus aureus) [µg/mL] | MIC ([8]; ATCC51299) [µg/mL] |
| --- | --- | --- | --- | --- | --- | --- | --- | --- | --- | --- | --- | --- | --- | --- | --- | --- |
| 12.8 (≈ 21 µM) | ≤ 0.0125 | 1.6 (≈ 2.62 µM) | ≤ 0.0025 | 0.0125 (≈ 0.0205 µM) | ≤ 0.0125 | ≥ 2 | 1.6 (≈ 2.62 µM) | C=C[C@]1(C)C[C@@H](OC(=O)CSc2cccc(CNC(=O)[C@H]3CCCCN3)c2)[C@]2(C)C(C)CCC3(CCC(=O)C32)[C@@H](C)[C@@H]1O (stereo partly drawn) [Example 1, 14-O-[(3-{[((R)-Piperidine-2-carbonyl)-amino]-methyl}-phenylsulfanyl)-acetyl]-mutilin] | very good activity |  |  |  |  |  |  |  |
| > 6.4 | 0.05 (≈ 0.103 µM) | > 6.4 | 0.16 (≈ 0.33 µM) | 0.0125 (≈ 0.0258 µM) | 0.025 (≈ 0.0516 µM) |  | > 6.4 | C=C[C@]1(C)C[C@@H](OC(=O)CSc2cccc(C)c2)[C@]2(C)C(C)CCC3(CCC(=O)C32)[C@@H](C)[C@@H]1O (stereo partly drawn) [Example 39, 14-O-[(3-Methyl-phenylsulfanyl)-acetyl]-mutilin] |  |  |  |  |  |  |  |  |
|  |  |  |  |  |  |  |  | C=C[C@]1(C)C[C@@H](OC(=O)COc2cccc(C)c2)[C@]2(C)[C@H](C)CC[C@]3(CCC(=O)[C@H]32)[C@@H](C)[C@@H]1O [Example 40, 14-O-[(3-Methyl-phenoxy)-acetyl]-mutilin] |  | > 6.4 | 0.05 (≈ 0.107 µM) | > 6.4 | 0.64 (≈ 1.37 µM) | 0.0125 (≈ 0.0267 µM) | 0.05 (≈ 0.107 µM) | > 6.4 |
|  |  |  |  |  |  |  |  | CC[C@]1(C)C[C@@H](OC(=O)COc2cccc(C)c2)[C@]2(C)C(C)CCC3(CCC(=O)C32)[C@@H](C)[C@@H]1O (stereo partly drawn) [Example 41, 14-O-[(3-Methyl-phenoxy)-acetyl]-19,20-dihydromutilin] |  | > 6.4 | 0.1 (≈ 0.212 µM) | > 6.4 | > 0.64 | 0.025 (≈ 0.0531 µM) | 0.05 (≈ 0.106 µM) | > 6.4 |
